Test results taken from US20250177566A1, “USE OF CHEMICAL EPIGENETIC MODIFIERS TO MODULATE GENE EXPRESSION” (The University of North Carolina at Chapel Hill, priority 2022, published 2025).

Key:
BRD4 = biological target: T1, BRD4 (Homo sapiens, UniProt O60885+P62942); test: BRD4 ChIP-qPCR near the CXCR4 transcription start site, HCT116; format: cell-based; conditions: FIG. 8, 25 nM, 24 hrs
T1 construct: achieved via the accumulation of endogenous epigenetic machinery at the designed gRNA targeted gene locus; endogenous in cells; host or cells: HCT116 cells stably expressing dCas9 and MS2-FKBP*x2, transfected with CXCR4 or NT gRNA
Description: FIGS. 8A-8B show alamarBlue cell viability assays. HEK293T or HCT116 cells were plated in 96-well plates 24 hrs before chemical treatment of 0.001, 0.01, 0.1, 1, 10, 50, and 100 μM CEM207 was added. Another group of cells were treated with all concentrations of CEM207 mentioned above along with 200 nM CEM87 in all samples. After 4 days of chemical exposure, cell growth was measured by fluorescence. […] HCT116 cells were stably infected with dCas9 and MS2-FKBP*x2 constructs and transfected with CXCR4 gRNA. After 24 hrs of 25 nM CEM207 treatment, ChIP-qPCR was performed at different base pair distances from the transcription start site of CXCR4 gene. […] Error bars represent the standard deviation.
Given that SLF*-CEMa facilitates gene activation via recruitment of BET proteins including BRD4, BRD4 enrichment at a specific targeted gene locus was investigated to further validate the mechanism of CEM207. Based on the alamarBlue cell viability assay performed with HEK293T and HCT116 cells, CEM207 can have different toxicity effects on different cell lines after 4 days of exposure. […] The signal change was measured between samples when only CEM207 or gRNA are present and those where both are present. […] To determine outlier significance, a “z-score” distribution was calculated by taking the scaled means of the x- and y-axis values and calculated P values for each point within this distribution. […]

MYOD1 = MYOD1 mRNA activation in HEK293T (dCas9, MS2-FKBP*x2), qRT-PCR; format: cell-based, human; conditions: FIG. 7E; for fold change, MYOD1 mRNA (MYOD1 gRNA vs NT gRNA): 24 hrs
Description: HCT116 cells were stably infected with dCas9 and MS2-FKBP*x2 via lentivirus. NT gRNA was transfected and the change of CXCR4 mRNA expression were quantified with RNA extraction and qRT-PCR, normalized to GAPDH. After 24 hrs of SLF*-CEMa exposure, the cells were separated into three groups: 1) continuous SLF*-CEMa treatment; 2) washout with media; and 3) washout with 20 μM AP1867 added. RNA extraction was performed at 12, 24, 48, and 72 hrs time points. […] HCT116 cells were stably expressing dCas9 and MS2-FKBP*x2 constructs and transfected with CXCR4 gRNA or NT gRNA. APC CXCR4 antibody was used in flow cytometry at referred time points. […] HEK293T cells were lentivirally infected with dCas9 and MS2-FKBP*x2 constructs and transfected with MYOD1 gRNA or NT gRNA. RNA extraction and qRT-PCR were performed after 24 hrs of CEM207 treatment in 5 nM, 25 nM, and 50 nM concentrations along with no chemical treatment as the control group. MYOD1 mRNA expression level was normalized to GAPDH. […] Stable dCas9 and MS2-FKBP*x2 expressing HEK293T cells were transfected with CXCR4 gRNA and NT gRNA. RNA extraction and qRT-PCR were performed after 24 hrs of 25 nM CEM207 or no chemical treatment. CXCR4 mRNA expression level was normalized to GAPDH. […] Stable dCas9 and MS2-FKBP*x2 expressing HEK293T cells were transfected with IL1RN gRNA and NT gRNA. RNA extraction and qRT-PCR were performed after 24 hrs of 25 nM CEM207 treatment. IL1RN mRNA expression level was normalized to GAPDH. […] Stable dCas9 and MS2-FKBP*x2 expressing HEK293T cells were transfected with ASLC1 gRNA and NT gRNA. RNA extraction and qRT-PCR were performed after 24 hrs of 25 nM CEM207 treatment. IL1RN mRNA expression level was normalized to GAPDH. […] Error bars represent the standard deviation.
As a gene-specific activation technology, it is important to investigate the universal applicability of SLF*-CEMa and evaluate their ability to activate variable genes in different tissue cells. To do so, HEK293T cells stably expressing dCas9 and MS2-FKBP*x2 constructs via lentiviral infection were established and benchmarked for the gene activation level of MYOD1, CXCR4, and IL1RN after CEM207 treatment for 24 hours. HEK293T cells transfected with MYOD1 gRNA were treated with 5 nM, 25 nM, or 50 nM of CEM207. RNA extraction and qRT-PCR were preformed after 24 hours. […] As a result, another gene was tested in the […] cell line. Stably infected cells were transfected with ASCL1 gRNA and mRNA expression was measured by qRT-PCR.
RNA extraction and qRT-PCR. All RNA extraction experiments were conducted in 12-well plate format. Culturing medium was removed, and cells were washed with 1×PBS, following with 0.05% trypsin to disassociate. […] The primer sets used in quantifying each gene can be found in Table 4.

T1 sequence (P62942 2-108 limits assumed, other chains not shown): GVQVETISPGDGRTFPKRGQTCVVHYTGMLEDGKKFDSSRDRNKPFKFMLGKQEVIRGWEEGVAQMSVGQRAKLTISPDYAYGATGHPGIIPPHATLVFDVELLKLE

For CC[C@H](C(=O)N1CCCC[C@H]1C(=O)O[C@H](CCc1ccc(OC)c(OC)c1)c1cccc(OCC(=O)NCCOCCOCCNC(=O)C[C@@H]2N=C(c3ccc(Cl)cc3)c3c(sc(C)c3C)-n3c(C)nnc32)c1)c1cc(OC)c(OC)c(OC)c1 [CEM207, (R)-1-(3-((14-((S)-4-(4-Chlorophenyl)-2,3,9-trimethyl-6H-thieno[3,2-f][1,2,4]triazolo[4,3-a][1,4]diazepin-6-yl)-2,13-dioxo-6,9-dioxa-3,12-diazatetradecyl)oxy)phenyl)-3-(3,4-dimethoxyphenyl) propyl(S)-1-((S)-2-(3,4,5-trimethoxyphenyl)butanoyl) piperidine-2-carboxylate], the “fold change, BRD4 ChIP-qPCR (CXCR4 gRNA vs NT gRNA)” value (BRD4; +40 bp from CXCR4 TSS) was 2.7 fold, the “fold change, BRD4 ChIP-qPCR (CXCR4 gRNA vs NT gRNA)” value (BRD4; +300 bp from CXCR4 TSS) was 1.2 fold and the “MYOD1 mRNA expression” value (MYOD1; 5 nM, 25 nM, or 50 nM, 24 hours) was “dose-dependent increase”. For the same compound, the “fold change, MYOD1 mRNA (MYOD1 gRNA vs NT gRNA)” value (shortened to “fold change, MYOD1 mRNA”) (MYOD1; 5 nM) was 5.4 fold, the “fold change, MYOD1 mRNA” value (MYOD1; 25 nM) was 10.8 fold and the “fold change, MYOD1 mRNA” value (MYOD1; 50 nM) was 10.9 fold.
